Laboratory results as given in article PMC11434840, “Discovery of Benzopyrone-Based Candidates as Potential Antimicrobial and Photochemotherapeutic Agents through Inhibition of DNA Gyrase Enzyme B: Design, Synthesis, In Vitro and In Silico Evaluation” (Pharmaceuticals, 2024).
Like-named read-outs stand apart in the source and are kept apart here.

Legend:
[1] = tested on: Candida albicans ATCC 10231; assay: Antimicrobial agar cup-plate assay, C. albicans; format: cell-based; parameters: key to Inhibition Zone (mm) C. albicans: -: no activity; settings: for Inhibition Zone (mm) C. albicans: 0.1 mL of compound in DMF, overnight incubation, mean ± SD, at least three experiments
Protocol: (§1) The antimicrobial activity of all newly synthesized compounds was determined using the agar cup-plate method using the Hi-Media agar medium. Xanthotoxin, tobramycin, and amphotericin B were used as reference drugs. All newly synthesized compounds were tested against two strains of Gram-positive bacteria (Bacillus subtilis ATCC 14579 and Staphylococcus aureus ATCC 25923), Gram-negative bacteria (Escherichia coli ATCC 25922), and yeast (Candida albicans ATCC 10231).
(§2) The nutrient agar medium consists of 0.3% of beef extract, 0.5% of peptone, 0.1% dipotassium hydrogen phosphate, and 1.5% agar. Broth cultures of the organisms were prepared by incubating slant agar seeded with the organisms overnight.
(§3) The prepared broth culture (0.02 mL) was carefully added to sterile Petri dishes. Then, 10 mL of the liquefied nutrient agar medium was poured into each dish, mixed uniformly, and allowed to solidify. Using a sterilized cork borer, cups (9 mm) were scooped out of the agar media contained in the Petri dishes. Each test compound (50 mg) was dissolved in 1 mL DMF (50 mg mL^−1), which was used as a stock solution to carry out the twofold dilution technique. A fixed volume (0.1 mL) of the tested compounds dissolved in dimethylformamide (DMF) was added. Each plate contained a cup filled with DMF to disregard the effect of solvent. Additionally, two other cups were filled with tobramycin and xanthotoxin being used as reference drugs. The plates were incubated overnight to examine the antimicrobial activity. Zones of inhibition obtained by each test compound were measured in millimeters and the results are recorded in Table 2.
(§4) GraphPad Prism-version 5 (GraphPad Software, Inc., La Jolla, CA, USA) was used for statistical analysis.

[2] = tested on: Bacillus subtilis ATCC 14579; assay: Antimicrobial agar cup-plate assay, B. subtilis; format: cell-based; settings: 0.1 mL of compound in DMF, overnight incubation, mean ± SD, at least three experiments
Protocol: as §1, §2, §3, §4

[3] = tested on: Staphylococcus aureus ATCC 25923; assay: Antimicrobial agar cup-plate assay, S. aureus; format: cell-based; parameters: key: -: no activity; settings: 0.1 mL of compound in DMF, overnight incubation, mean ± SD, at least three experiments
Protocol: as §1, §2, §3, §4

[4] = tested on: Escherichia coli ATCC 25922; assay: Antimicrobial agar cup-plate assay, E. coli; format: cell-based; parameters: key to Inhibition Zone (mm) E. coli: -: no activity; settings: for Inhibition Zone (mm) E. coli: 0.1 mL of compound in DMF, overnight incubation, mean ± SD, at least three experiments
Protocol: as §1, §2, §3, §4

[5] = tested on: Bacillus subtilis ATCC 14579; assay: Photosensitizing assay (MIC before and after UV irradiation, agar cup-plate); format: cell-based; settings: for MIC: Bacillus subtilis, ATCC14579, light or radiation study; for photosensitizing activity against B. subtilis (in words): after 20 min of irradiation
Protocol: The photosensitizing activity was determined using the agar cup-plate method (described in Section 2.3) with Hi-Media agar medium. The antibacterial activity against Bacillus subtilis ATCC 14579 was measured before and after exposure to UV lamp (365 nm). The diameters of the inhibition zones were measured in mm and the results were compared with xanthotoxin. The tested organism used was Bacillus subtilis.
For the photosensitizing activity, xanthotoxin was used as a reference drug and DMF as a negative control. The minimum inhibitory concentrations (MIC) were determined using the agar cup-plate method. Each test compound (50 mg) was dissolved in 1 mL DMF (50 mg mL^−1), which was used as a stock solution to carry out the twofold dilution technique. The sample size for all the compounds was adjusted to 0.1 mL. The solution of the test compound (0.1 mL) was added to the cups. The plates were divided into test plates and duplicate plates. Before irradiation, the test plates were incubated in the dark at 37 °C for 3 h to permit the diffusion of the tested compounds through the agar layer. The duplicate plates were incubated overnight and used as a control for the determination of the antibacterial activity. The covers were removed from the test plates, and the dishes were exposed to UV lamp (365 nm) for 20 min. After irradiation, the plates were left overnight in the dark at 37 °C. MIC, the least concentration preventing visible bacterial growth, was determined in both the control and test, indicating the antibacterial and photosensitizing activity of the tested compounds, respectively.
To evaluate the significance of the difference in the results, each experiment was repeated at least three times. […] GraphPad Prism-version 5 (GraphPad Software, Inc., La Jolla, CA, USA) was used to perform statistical analysis of the results.

[6] = 20 min, B. subtilis, after irradiation with UV lamp (365 nm) for 20 min (photosensitizing activity), 100 μL per cup, read-out: MIC (mg mL^−1) Test
[7] = 20 min, B. subtilis, after irradiation with UV lamp (365 nm) for 20 min (photosensitizing activity), read-out: MIC (mM) Test
[8] = B. subtilis, without irradiation (antibacterial activity), 100 μL per cup, read-out: MIC (mg mL^−1) Control
[9] = B. subtilis, without irradiation (antibacterial activity), read-out: MIC (mM) Control

| Compound | melting point [°C] | Inhibition Zone (mm) C. albicans [1] | Inhibition Zone (mm) B. subtilis [2] [mm] | Inhibition Zone (mm) S. aureus [3] | antibacterial activity against E. coli (in words) [4] | Inhibition Zone (mm) E. coli [4] | MIC [5, 6] [µg/mL] | MIC [5, 7] [mM] | MIC [5, 8] [µg/mL] | MIC [5, 9] [mM] | photosensitizing activity against B. subtilis (in words) [5] | antifungal activity against C. albicans (in words) [1] | MIC (mM) Test ([5]; B. subtilis, after irradiation with UV lamp (365 nm) for 20 min (photosensitizing activity)) [mM] | MIC (mg mL^−1) Test ([5]; B. subtilis, after irradiation with UV lamp (365 nm) for 20 min (photosensitizing activity), 100 μL per cup) [µg/mL] | MIC (mM) Control ([5]; B. subtilis, without irradiation (antibacterial activity)) [mM] | MIC (mg mL^−1) Control ([5]; B. subtilis, without irradiation (antibacterial activity), 100 μL per cup) [µg/mL] |
| --- | --- | --- | --- | --- | --- | --- | --- | --- | --- | --- | --- | --- | --- | --- | --- | --- |
| C[C@@H]1[C@H](O)[C@@H](C)/C=C/C=C/C=C/C=C/C=C/C=C/C=C/[C@H](O[C@@H]2O[C@H](C)[C@@H](O)[C@H](N)[C@@H]2O)C[C@@H]2O[C@](O)(C[C@@H](O)C[C@@H](O)[C@H](O)CC[C@@H](O)C[C@@H](O)CC(=O)O[C@H]1C)C[C@H](O)[C@H]2C(=O)O [Amphotercin B, amphotericin B, reference compound] |  | 14 ± 1.414 mm |  |  |  |  |  |  |  |  |  |  |  |  |  |  |
| CCc1cc2c(C)cc(=O)oc2cc1OC(C)C(C)=O (centres unmarked) [Compound 2a, 6-Ethyl-4-methyl-7-(3-oxobutan-2-yloxy)-2H-1-benzopyran-2-one] | 95 to 97 | 11 ± 0.8165 mm | 15 ± 1.414 | 14 ± 1.414 mm | inactive | - | 6250 | 22.8 | 6250 | 22.8 |  |  |  |  |  |  |
| CCc1cc2c(-c3ccccc3)cc(=O)oc2cc1OC(C)C(C)=O (centres unmarked) [Compound 2b, 6-Ethyl-7-(3-oxobutan-2-yloxy)-4-phenyl-2H-1-benzopyran-2-one] | 100 to 102 | 15 ± 1.414 mm | 14 ± 0.8165 | 22 ± 1.414 mm | inactive | - | 6250 | 18.6 | 6250 | 18.6 |  |  |  |  |  |  |
| CCc1cc2c(C)cc(=O)oc2c2c(C)c(C)oc12 [Compound 3a, 9-Ethyl-2,3,7-trimethyl-5H-furo[2,3-h]benzopyran-5-one] | 199 to 201 | 16 ± 0.8165 mm | 20 ± 0.8165 | 30 ± 1.414 mm |  | 15 ± 1.414 mm | 780 | 3.04 | 780 | 3.04 | without any photosensitizing activity |  |  |  |  |  |
| CCc1cc2c(-c3ccccc3)cc(=O)oc2c2c(C)c(C)oc12 [Compound 3b, 2,3-Dimethyl-9-ethyl-7-phenyl-5H-furo[2,3-h]benzopyran-5-one] | 90 to 92 | 15 ± 1.414 mm | 10 ± 1.414 | 22 ± 0.8165 mm |  | 16 ± 1.414 mm | 3120 | 9.82 | 3120 | 9.82 | without any photosensitizing activity |  |  |  |  |  |
| CCc1cc2c(C)cc(=O)oc2cc1OC1CCCCC1=O (centres unmarked) [Compound 4a, 6-Ethyl-4-methyl-7-(2-oxocyclohexyloxy)-2H-1-benzopyran-2-one] | 160 to 162 | 18 ± 1.414 mm | 15 ± 0.8165 | 24 ± 1.414 mm | inactive | - | 780 | 2.6 | 3120 | 10.4 |  |  |  |  |  |  |
| CCc1cc2c(-c3ccccc3)cc(=O)oc2cc1OC1CCCCC1=O (centres unmarked) [Compound 4b, 6-Ethyl-7-(2-oxocyclohexyloxy)-4-phenyl-2H-1-benzopyran-2-one] | 150 to 152 | 14 ± 1.414 mm | 17 ± 0.8165 | 29 ± 0.8165 mm | inactive | - | 3120 | 8.62 | 3120 | 8.62 |  |  |  |  |  |  |
| CCc1cc2c(C)cc(=O)oc2c2c3c(oc12)CCCC3 [Compound 5a, 6-Ethyl-4-methyl-8,9,10,11-tetrahydro-2H-benzofuro[2,3-h]benzopyran-2-one] |  | 18 ± 0.8165 mm | 22 ± 0.8165 | 30 ± 0.8165 mm |  | 16 ± 1.414 mm | 780 | 2.76 | 3120 | 11.1 |  |  |  |  |  |  |
| NC[C@H]1O[C@H](O[C@H]2[C@H](O)[C@@H](O[C@H]3O[C@H](CO)[C@@H](O)[C@H](N)[C@H]3O)[C@H](N)C[C@@H]2N)[C@H](N)C[C@@H]1O [Tobramycin, reference compound] |  |  |  | 21 ± 0.8165 mm |  | 20 ± 1.414 mm |  |  |  |  |  |  |  |  |  |  |
| COc1c2occc2cc2ccc(=O)oc12 [Xanthotoxin, reference compound] |  | 15 ± 0.8165 mm | 13 ± 0.8165 | - |  | 25 ± 0.8165 mm |  |  |  |  |  |  | 6.94 | 1500 | 57.82 | 12500 |

Further lines, with some results ahead:

| melting point [°C] | Compound | Inhibition Zone (mm) C. albicans [1] | Inhibition Zone (mm) B. subtilis [2] [mm] | Inhibition Zone (mm) S. aureus [3] | antibacterial activity against E. coli (in words) [4] | Inhibition Zone (mm) E. coli [4] | MIC [5, 6] [µg/mL] | MIC [5, 7] [mM] | MIC [5, 8] [µg/mL] | MIC [5, 9] [mM] | photosensitizing activity against B. subtilis (in words) [5] | antifungal activity against C. albicans (in words) [1] | MIC (mM) Test ([5]; B. subtilis, after irradiation with UV lamp (365 nm) for 20 min (photosensitizing activity)) [mM] | MIC (mg mL^−1) Test ([5]; B. subtilis, after irradiation with UV lamp (365 nm) for 20 min (photosensitizing activity), 100 μL per cup) [µg/mL] | MIC (mM) Control ([5]; B. subtilis, without irradiation (antibacterial activity)) [mM] | MIC (mg mL^−1) Control ([5]; B. subtilis, without irradiation (antibacterial activity), 100 μL per cup) [µg/mL] |
| --- | --- | --- | --- | --- | --- | --- | --- | --- | --- | --- | --- | --- | --- | --- | --- | --- |
| 108 to 110 | CCc1cc2c(-c3ccccc3)cc(=O)oc2c2c3c(oc12)CCCC3 [Compound 5b, 6-Ethyl-4-phenyl-8,9,10,11-tetrahydro-2H-benzofuro[2,3-h]benzopyran-2-one] | - | 22 ± 1.414 | 26 ± 0.8165 mm |  | - | 780 | 2.26 | 3120 | 9.07 |  | inactive |  |  |  |  |
| 120 to 122 | CCc1cc2c(C)cc(=O)oc2c2c1oc1ccccc12 [Compound 6a, 6-Ethyl-4-methyl-2H-benzofuro[2,3-h]benzopyran-2-one] | 21 ± 0.8165 mm | 20 ± 1.414 | 30 ± 1.414 mm |  | 23 ± 1.414 mm | 390 | 1.4 | 3120 | 11.2 |  |  |  |  |  |  |
| 120 to 122 | CCc1cc2c(-c3ccccc3)cc(=O)oc2c2c1oc1ccccc12 [Compound 6b, 6-Ethyl-4-phenyl-2H-benzofuro[2,3-h]benzopyran-2-one] | 15 ± 1.414 mm | 22 ± 1.414 | 30 ± 1.414 mm |  | 17 ± 1.414 mm | 1500 | 4.41 | 3120 | 9.18 |  |  |  |  |  |  |
